Values joined by “and” are separate entries in the source; they are usually repeats but may differ in a detail not shown here. Equal entries are not always repeated. One block for each compound: values may come before it.
Experiments:
[1] = target: Human CB1R (Cannabinoid receptor 1) (Homo sapiens, UniProt P21554); assay: CB-1 in vitro cAMP (HTRF) assay; format: cell-based; settings: HEK cells, cAMP HTRF, 250 nM forskolin; mean where tested more than once; read-out: CB1 HEK_cAMP EC50
In short: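 Intracellular cAMP from HTRF ratio (d2-cAMP vs Eu-cryptate anti-cAMP), converted to nM via per-plate standards, in stable human CB1R HEK-293 cells.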

DIO mice = assay: Five-Day Study in DIO Mice: food intake, body weight, plasma insulin, fed blood glucose; format: in vivo; settings: for Plasma Insulin: 30 mg/kg, day 5, two hours after dosing, (Std Err)
Source text: Male 14-20-week old diet-induced obese mice are ordered from Taconic. Mice were started on a 60% fat diet (D12492, Research Diets, New Brunswick, N.J.) at 6 weeks of age. Mice are single-housed.
Male Sprague Dawley rats are ordered from Charles River (225-250 gm upon arrival). They are fed standard chow diet (Purina 5001) and housed 2 per cage. Male C57bl/6j mice are ordered from Charles River at 22-25 g and housed 3 per cage. They are fed standard chow (Purina 5001). All animals are housed in a temperature-controlled room with 12-hour light/dark cycle. Animals are given food and water ad libitum, except as noted.
Test compounds are administered by oral gavage (5 ml kg^−1 or 10 ml kg^−1).

[2] = Chronic DIO Mouse: plasma and brain concentrations; format: in vivo; settings: oral, DIO mice, 2 Hours Post Dose
Procedure: DIO mice received vehicle, test compound (@ 1, 3, 10, and 30 mg/kg) daily for 26 days. At the end of the experiment, the mice were euthanized and blood and tissues were collected.

in vivo = settings: mouse, 30 mg/kg
[3] = 30 mg/kg daily oral, Day 1, (Std Err)
[4] = 30 mg/kg daily oral, Day 2, (Std Err)
[5] = 30 mg/kg daily oral, Day 3, (Std Err)
[6] = 30 mg/kg daily oral, Day 4, (Std Err)
[7] = 30 mg/kg group, Day 0, (Std Err)

Sequence of Human CB1R (Cannabinoid receptor 1) (P21554 whole entry): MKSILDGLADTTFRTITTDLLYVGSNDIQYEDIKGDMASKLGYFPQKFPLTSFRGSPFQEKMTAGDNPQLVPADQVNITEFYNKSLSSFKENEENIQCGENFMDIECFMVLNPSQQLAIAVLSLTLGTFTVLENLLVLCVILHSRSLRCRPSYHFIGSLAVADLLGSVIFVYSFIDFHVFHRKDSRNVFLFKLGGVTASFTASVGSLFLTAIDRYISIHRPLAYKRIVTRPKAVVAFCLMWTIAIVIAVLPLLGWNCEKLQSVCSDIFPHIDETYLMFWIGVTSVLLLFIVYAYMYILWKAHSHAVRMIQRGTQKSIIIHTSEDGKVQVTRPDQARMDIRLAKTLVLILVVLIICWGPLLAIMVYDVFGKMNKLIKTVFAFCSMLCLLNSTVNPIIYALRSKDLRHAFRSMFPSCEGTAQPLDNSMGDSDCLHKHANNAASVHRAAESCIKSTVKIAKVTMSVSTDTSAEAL

Compound: O=C(O)c1cccc(CN2CCC(n3c(C4CC4)nc4ccc(C(c5ccc(Cl)cc5)c5ccc(Cl)cc5)cc43)CC2)n1 [Example 125]
EC50 [1]: 17.7 nM

Compound: CCc1nc2ccc(C(c3ccc(Cl)cc3)c3nccs3)cc2n1C1CCN(S(=O)(=O)C(F)(F)F)CC1 (stereo not drawn) [Example 400]
EC50 [1]: 6 nM

Compound: O=C(O)c1ccc(F)c(CN2CCC(n3c(C4CC4)nc4ccc(C(c5ccc(Cl)cc5)c5ccc(Cl)cc5)cc43)CC2)c1 [Example 92]
EC50 [1]: 15.9 nM

Compound: O=C(O)c1ccc(CN2CCC(n3c(C4CC4)nc4ccc(C(c5ccc(Cl)cc5)c5ccc(Cl)cc5)cc43)CC2)nc1 [Example 124]
EC50 [1]: 34.9 nM

Compound: CCc1nc2ccc(C(c3ccc(Cl)cc3)c3ccc(Cl)cc3)cc2n1C1CCN(S(=O)(=O)C(F)(F)F)CC1 [Example 328]
EC50 [1]: 8.4 nM | Mean Body Weight (DIO mice; [3]): 41.2 (0.7) Grams | Mean Daily Food Intake (DIO mice; [3]): 0.5 (0.1) Grams | Mean Body Weight (DIO mice; [4]): 39.6 (0.6) Grams | Mean Daily Food Intake (DIO mice; [4]): 0.5 (0.1) Grams | Mean Body Weight (DIO mice; [5]): 38.6 (0.6) Grams | Mean Daily Food Intake (DIO mice; [5]): 0.7 (0.1) Grams | Fed Blood Glucose (DIO mice; [6]): 154 (7) mg/dL | Mean Body Weight (DIO mice; [6]): 38.2 (0.7) Grams | Mean Daily Food Intake (DIO mice; [6]): 1.2 (0.1) Grams | Fed Blood Glucose (DIO mice; [7]): 183 (9) mg/dL | Mean Body Weight (DIO mice; [7]): 43.6 (0.7) Grams | Plasma Insulin (DIO mice): 1.31 (0.13) ng/mL

Compound: O=C(O)c1cccc(CN2CCC(n3c(C4CC4)nc4ccc(C(c5ccc(Cl)cc5)c5ccc(Cl)cc5)cc43)CC2)c1 [Example 148]
EC50 [1]: 9.6 nM | concentration at 2 h ([2]; brain, 1 mg/kg daily, Day 25, read-out: Brain Concentration (Std Dev)): 18.2 ng/g | concentration at 2 h ([2]; brain, 3 mg/kg daily, Day 25, read-out: Brain Concentration (Std Dev)): 29.9 ng/g | concentration at 2 h ([2]; brain, 10 mg/kg daily, Day 25, read-out: Brain Concentration (Std Dev)): 42 ng/g | concentration at 2 h ([2]; brain, 30 mg/kg daily, Day 25, read-out: Brain Concentration (Std Dev)): 73.5 ng/g | concentration at 2 h ([2]; plasma, 1 mg/kg daily, Day 25, read-out: Plasma Concentration (Std Dev)): 288 ng/mL | concentration at 2 h ([2]; plasma, 3 mg/kg daily, Day 25, read-out: Plasma Concentration (Std Dev)): 1350 ng/mL | concentration at 2 h ([2]; plasma, 10 mg/kg daily, Day 25, read-out: Plasma Concentration (Std Dev)): 3430 ng/mL | concentration at 2 h ([2]; plasma, 30 mg/kg daily, Day 25, read-out: Plasma Concentration (Std Dev)): 15200 ng/mL

Compound: O=C(O)c1cc(F)cc(CN2CCC(n3c(C4CC4)nc4ccc(C(c5ccc(Cl)cc5)c5ccc(Cl)cc5)cc43)CC2)c1 [Example 89]
EC50 [1]: 7.2 nM

Compound: O=C(O)c1ccc(CN2CCC(n3c(C4CC4)nc4ccc(C(c5ccc(Cl)cc5)c5ccc(Cl)cc5)cc43)CC2)o1 [Example 129]
EC50 [1]: 19.8 nM

Compound: O=S(=O)(N1CCC(Cn2c(C3CC3)nc3ccc(C(c4ccc(Cl)cc4)c4ccc(Cl)cc4)cc32)CC1)C(F)(F)F [Example 316]
EC50 [1]: 2.8 nM

Now from value to compound, other results behind:

EC50 [1]: 17.6 nM
Compound: O=C(O)c1ccc(S(=O)(=O)N2CCC(n3c(C4CC4)nc4ccc(C(c5ccc(Cl)cc5)c5ccc(Cl)cc5)cc43)CC2)o1 [Example 232]

EC50 [1]: 18 nM
Compound: O=C(O)c1cccc(S(=O)(=O)N2CCC(n3c(C4CC4)nc4ccc(C(c5ccc(Cl)cc5)c5ccc(Cl)cc5)cc43)CC2)c1 [Example 242]

EC50 [1]: 3.7 nM
Compound: O=S(=O)(c1cccc(O)c1)N1CCC(n2c(C3CC3)nc3ccc(C(c4ccc(Cl)cc4)c4ccc(Cl)cc4)cc32)CC1 [Example 259]

EC50 [1]: 69.3 nM
Compound: COc1ccc(C(c2ccc(OC)cc2)c2ccc3nc(C4CCC4)n(C4CCN(S(=O)(=O)C(F)(F)F)CC4)c3c2)cc1 [Example 320]

EC50 [1]: 5.3 nM
Compound: CCc1nc2ccc(C(c3ccc(Cl)cc3)c3ccc(Cl)cc3)cc2n1CC1CCN(S(=O)(=O)C(F)(F)F)CC1 [Example 315]

EC50 [1]: 8.5 nM
Compound: O=C(O)c1csc(S(=O)(=O)N2CCC(n3c(C4CC4)nc4ccc(C(c5ccc(Cl)cc5)c5ccc(Cl)cc5)cc43)CC2)c1 [Example 221]

EC50 [1]: 9.3 nM
Compound: O=C(O)c1ccc(S(=O)(=O)N2CCC(n3c(C4CC4)nc4ccc(C(c5ccc(Cl)cc5)c5ccc(Cl)cc5)cc43)CC2)cc1 [Example 276]

EC50 [1]: 5.6 nM | concentration at 2 h (in vivo): 7660 ng/mL and 208 ng/g
Compound: O=S(=O)(N1CCC(n2c(C3CC3)nc3ccc(C(c4ccc(Cl)cc4)c4ccc(Cl)cc4)cc32)CC1)C(F)(F)F [Example 335]
Mean Body Weight (DIO mice; [3]): 42.8 (0.8) Grams | Mean Daily Food Intake (DIO mice; [3]): 0.4 (0.1) Grams | Mean Body Weight (DIO mice; [4]): 41.4 (0.7) Grams | Mean Daily Food Intake (DIO mice; [4]): 0.5 (0.1) Grams | Mean Body Weight (DIO mice; [5]): 40.3 (0.6) Grams | Mean Daily Food Intake (DIO mice; [5]): 0.5 (0.1) Grams | Fed Blood Glucose (DIO mice; [6]): 160 (6) mg/dL | Mean Body Weight (DIO mice; [6]): 39.4 (0.6) Grams | Mean Daily Food Intake (DIO mice; [6]): 1.1 (0.1) Grams | Fed Blood Glucose (DIO mice; [7]): 187 (9) mg/dL | Mean Body Weight (DIO mice; [7]): 45.4 (0.7) Grams | Plasma Insulin (DIO mice): 2.72 (0.61) ng/mL

EC50 [1]: 6.9 nM
Compound: O=S(=O)(N1CCC(n2c(C3CCC3)nc3ccc(C(c4ccc(Cl)cc4)c4ccc(Cl)cc4)cc32)CC1)C(F)(F)F [Example 318]

From patent US20190031618A1, “BENZIMIDAZOLE DERIVATIVES USEFUL AS CB-1 INVERSE AGONISTS” (Janssen Pharmaceutica NV, priority 2015, published 2019)
